{
  "source": "ChEMBL document CHEMBL5375988",
  "about": "“AcGlcAs: A Novel P53-Targeting Arsenical with Potent Cellular Uptake and Cancer Cell Selectivity” (J Med Chem, 2023)",
  "key": {"[1]": {"tested_on": "HL-60", "assay": "Upregulation of PUMA protein expression in human HL-60 cells overexpressing p53-V272M mutant pretreated for 1 hr followed by culturing in fresh medium for 16 hrs by Western blot analysis", "assay_type": "functional, cell-based"}, "[2]": {"tested_on": "U-937", "assay": "Induction of senescence in human U-937 cells overexpressing p53-V272M mutant assessed as upregulation of PML gene expression by RT-qPCR analysis", "assay_type": "functional, cell-based"}, "[3]": {"assay": "Plasma stability in mouse assessed as half life at […] measured upto 120 mins by LC-MS analysis", "assay_type": "ADME, cell-free"}, "[4]": {"assay": "Drug uptake in human HepG2 cells assessed as arsenic localization in cytoplasm at 10 uM incubated for 1 hr by ICP-MS analysis", "assay_type": "ADME, cell-based", "conditions": "hepg2, 1 h"}, "[5]": {"assay": "Drug uptake in human HPDE6c7 cells at 10 uM measured after 10 mins by ICP-MS analysis", "assay_type": "ADME, cell-based", "conditions": "hpde6c7, 10 min"}, "[6]": {"tested_on": "NB-4", "assay": "Induction of apoptosis in human NB4 cells assessed as viable cells at 3 uM preincubated for 1 hrs followed by replacement with fresh culture medium and measured after 24 hrs by Annexin V-FITC/7AAD staining based flow cytometry assay (reference value: 94%)", "assay_type": "functional", "conditions": "read-out: Activity"}, "[7]": {"tested_on": "HL-60", "assay": "Upregulation of CDKN1A mRNA expression in human HL-60 cells overexpressing p53-V272M mutant at 2 uM pretreated for 1 hr followed by culturing in fresh medium for 8 hrs by RT-qPCR analysis", "assay_type": "functional, cell-based"}, "[8]": {"assay": "Toxicity in M-NSG mouse xenografted with luciferase transduced human U-937 cells harboring p53 V272M mutant assessed as reduction in body weight at 10 mg/kg, iv measured for 8 days post administration", "assay_type": "organism-based", "conditions": "in vivo, 192 h, time 8 day"}, "[9]": {"tested_on": "NB-4", "assay": "Induction of apoptosis in human NB4 cells assessed as late apoptotic cells at 3 uM preincubated for 1 hrs followed by replacement with fresh culture medium and measured after 24 hrs by Annexin V-FITC/7AAD staining based flow cytometry assay (reference value: 3.71%)", "assay_type": "functional"}, "[10]": {"tested_on": "NCI-H1299", "assay": "Upregulation of MDM2 protein expression in human NCI-H1299 cells overexpressing p53-V272M mutant pretreated for 1 hr followed by culturing in fresh medium for 16 hrs by Western blot analysis", "assay_type": "functional, cell-based"}, "[11]": {"tested_on": "U-937", "assay": "Induction of apoptosis in human U-937 cells harboring p53-V272M mutant assessed as increase in early apoptotic cells at 0.5 to 8 uM pretreated for 1 hr followed by culturing in fresh medium for 24 hrs by Annexin V-FITC/7AAD staining based flow cytometry analysis", "assay_type": "functional, cell-based", "conditions": "dose 0.5-8 µM"}, "[12]": {"assay": "Drug uptake in human MDA-MB-231 cells assessed as fold increase in arsenic accumulation at 10 uM incubated for 10 mins by ICP-MS analysis", "assay_type": "ADME, cell-based", "conditions": "mda-mb-231, 10 min"}, "[13]": {"tested_on": "U-937", "assay": "Antitumor activity against human U-937 cells harboring p53 V272M mutant xenografted in M-NSG mouse assessed as median survival at 25 mg/kg, ip administered daily for 11 days (reference value: 11 day)", "assay_type": "functional"}, "[14]": {"tested_on": "NB-4", "assay": "Induction of apoptosis in human NB4 cells assessed as necrotic cells at 3 uM preincubated for 1 hrs followed by replacement with fresh culture medium and measured after 24 hrs by Annexin V-FITC/7AAD staining based flow cytometry assay (reference value: 0.16%)", "assay_type": "functional"}, "[15]": {"target": "T1, PML-RARalpha (Homo sapiens) (UniProt P10276+P29590)", "T1 sequence (P10276 whole entry, looked up)": "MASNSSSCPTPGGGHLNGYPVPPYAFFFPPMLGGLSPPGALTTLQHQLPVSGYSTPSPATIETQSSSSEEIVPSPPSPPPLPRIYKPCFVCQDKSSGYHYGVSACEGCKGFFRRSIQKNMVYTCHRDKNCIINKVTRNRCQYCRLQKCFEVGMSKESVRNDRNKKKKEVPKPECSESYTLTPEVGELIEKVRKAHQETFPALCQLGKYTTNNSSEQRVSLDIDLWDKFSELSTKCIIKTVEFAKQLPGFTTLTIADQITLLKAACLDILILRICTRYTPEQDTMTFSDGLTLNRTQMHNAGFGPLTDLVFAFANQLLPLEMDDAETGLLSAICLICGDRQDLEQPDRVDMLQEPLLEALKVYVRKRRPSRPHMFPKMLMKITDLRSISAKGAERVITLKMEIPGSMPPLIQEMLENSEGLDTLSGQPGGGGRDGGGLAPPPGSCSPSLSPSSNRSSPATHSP", "T1 sequence (P29590 whole entry, looked up)": "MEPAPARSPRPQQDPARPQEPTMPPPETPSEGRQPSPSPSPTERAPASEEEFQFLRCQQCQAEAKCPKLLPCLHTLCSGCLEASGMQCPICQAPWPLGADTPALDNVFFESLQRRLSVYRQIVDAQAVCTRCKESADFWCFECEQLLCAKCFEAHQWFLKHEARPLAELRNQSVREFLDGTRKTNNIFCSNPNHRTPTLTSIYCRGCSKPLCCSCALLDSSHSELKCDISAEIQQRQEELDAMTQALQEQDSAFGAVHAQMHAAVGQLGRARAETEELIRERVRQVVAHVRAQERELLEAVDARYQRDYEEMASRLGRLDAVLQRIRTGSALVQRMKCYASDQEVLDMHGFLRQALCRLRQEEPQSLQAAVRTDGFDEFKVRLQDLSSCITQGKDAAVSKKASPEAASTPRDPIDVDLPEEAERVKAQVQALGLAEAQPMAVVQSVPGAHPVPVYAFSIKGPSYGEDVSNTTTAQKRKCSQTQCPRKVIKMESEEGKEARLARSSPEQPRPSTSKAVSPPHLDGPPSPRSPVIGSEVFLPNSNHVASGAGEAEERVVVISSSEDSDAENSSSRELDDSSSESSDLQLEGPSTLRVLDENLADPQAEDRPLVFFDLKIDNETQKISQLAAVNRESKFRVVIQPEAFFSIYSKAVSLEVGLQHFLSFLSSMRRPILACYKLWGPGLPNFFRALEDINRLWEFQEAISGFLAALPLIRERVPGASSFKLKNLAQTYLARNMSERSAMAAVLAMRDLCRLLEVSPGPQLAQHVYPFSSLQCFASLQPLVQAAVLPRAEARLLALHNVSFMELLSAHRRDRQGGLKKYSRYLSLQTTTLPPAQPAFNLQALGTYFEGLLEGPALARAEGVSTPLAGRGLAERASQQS", "assay": "Induction of PML/RARalpha degradation in human NB4 cells assessed as residual protein level at 0.1 uM incubated for 1 hrs followed by replacement with fresh culture medium and measured after 16 hrs by Western blot analysis (reference value: 1)", "assay_type": "cell-based"}, "[16]": {"tested_on": "U-937", "assay": "Antitumor activity against GFP-tagged human U-937 cells harboring p53 V272M mutant xenografted in M-NSG mouse assessed as appearance of smaller and lighter spleen at 25 mg/kg, ip administered for 9 days starting from 7 days post inoculation and measured on day 2 and 6", "assay_type": "functional, organism-based", "conditions": "time 9.0 day"}, "[17]": {"assay": "Drug uptake in human MDA-MB-231 cells at 10 uM measured after 10 mins by ICP-MS analysis", "assay_type": "ADME, cell-based", "conditions": "mda-mb-231, 10 min"}, "[18]": {"tested_on": "U-937", "assay": "Inhibition of colony formation in human U-937 cells harboring p53-V272M mutant at 0.5 to 8 uM pretreated for 1 hr followed by culturing in fresh medium and measured on day 14 by crystal violet staining based assay", "assay_type": "functional, cell-based", "conditions": "dose 0.5-8 µM"}, "[19]": {"target": "T1, PML-RARalpha (Homo sapiens)", "assay": "Induction of PML/RARalpha degradation in human NB4 cells assessed as downregulation of MPO mRNA expression incubated for 1 hrs followed by replacement with fresh culture medium for 6 hrs by RT-qPCR analysis", "assay_type": "cell-based", "conditions": "dose 0.3-3 µM"}, "[20]": {"tested_on": "U-937", "assay": "Cytotoxicity against p53 null human U-937 cells harboring p53 V272M mutant incubated for 48 hrs by CCK-8 assay", "assay_type": "functional, cell-based", "conditions": "U-937, 48 h"}, "[21]": {"tested_on": "HL-60", "assay": "Upregulation of p21 protein expression in human HL-60 cells overexpressing p53-V272M mutant pretreated for 1 hr followed by culturing in fresh medium for 16 hrs by Western blot analysis", "assay_type": "functional, cell-based"}, "[22]": {"tested_on": "HL-60", "assay": "Inhibition of colony formation in human HL-60 cells harboring p53-V272M mutant at 0.2 to 3.2 uM pretreated for 1 hr followed by culturing in fresh medium and measured on day 18 by crystal violet staining based assay", "assay_type": "functional, cell-based", "conditions": "dose 0.2-3.2 µM"}, "[23]": {"tested_on": "U-937", "assay": "Antitumor activity against human U-937 cells harboring p53-V272M mutant xenografted in NSG mouse assessed as delay in tumor progression at 10 mg/kg, iv administered for 9 days by bioluminescence imaging based luciferase analysis", "assay_type": "functional, organism-based", "conditions": "time 9.0 day"}, "[24]": {"assay": "Drug uptake in HFL1 cells at 10 uM measured after 10 mins by ICP-MS analysis", "assay_type": "ADME, cell-based", "conditions": "human, hfl1, 10 min"}, "[25]": {"tested_on": "U-937", "assay": "Upregulation of MDM2 protein expression in human U-937 cells overexpressing p53-V272M mutant at 0.1 to 0.5 uM pretreated for 1 hr followed by culturing in fresh medium for 16 hrs by Western blot analysis", "assay_type": "functional, cell-based", "conditions": "dose 0.1-0.5 µM"}, "[26]": {"tested_on": "NCI-H1299", "assay": "Upregulation of p21 protein expression in human NCI-H1299 cells overexpressing p53-V272M mutant pretreated for 1 hr followed by culturing in fresh medium for 16 hrs by Western blot analysis", "assay_type": "functional, cell-based"}, "[27]": {"tested_on": "U-937", "assay": "Antitumor activity against GFP-tagged human U-937 cells harboring p53 V272M mutant xenografted in M-NSG mouse assessed as decrease in leukemia cell population in spleen at 25 mg/kg, ip administered for 9 days starting from 7 days post inoculation and measured on day 2,6 and 9 by FACS analysis", "assay_type": "functional, organism-based", "conditions": "time 9.0 day"}, "[28]": {"tested_on": "NB-4", "assay": "Induction of apoptosis in human NB4 cells assessed as necrotic cells at 9 uM preincubated for 1 hrs followed by replacement with fresh culture medium and measured after 24 hrs by Annexin V-FITC/7AAD staining based flow cytometry assay (reference value: 0.16%)", "assay_type": "functional"}, "[29]": {"tested_on": "NB-4", "assay": "Inhibition of colony formation in human NB4 cells at 1 to 9 uM pretreated for 1 hr followed by washout and cultured in soft agar containing fresh medium for 18 days by crystal violet staining based assay", "assay_type": "functional, cell-based", "conditions": "dose 1-9 µM"}, "[30]": {"tested_on": "U-937", "assay": "Induction of senescence in human U-937 cells harboring p53-V272M mutant assessed as increase in SA-beta-gal positive cells at 0.5 to 8 uM pretreated for 1 hr followed by culturing in fresh medium for 8 hrs by […] microscopic analysis", "assay_type": "functional, cell-based", "conditions": "dose 0.5-8 µM"}, "[31]": {"assay": "Plasma stability in dog assessed as half life at […] measured upto 120 mins by LC-MS analysis", "assay_type": "ADME, cell-free, Canis lupus familiaris"}},
  "note": "Calls of active or inactive are those of the source. The rule behind the calls is not given here.",
  "data": [
    {"smiles": "CC(=O)OC[C@H]1O[C@@H](S[As]2SCCS2)[C@H](OC(C)=O)[C@@H](OC(C)=O)[C@@H]1OC(C)=O", "values": [
      {"measurement": "Activity", "setting": "[1]", "result": "Active"},
      {"measurement": "Activity", "setting": "[2]", "result": "inactive"},
      {"measurement": "half-life", "setting": "[3]", "result": 13.4, "unit": "min"},
      {"measurement": "Drug uptake", "setting": "[4]", "result": "Active"},
      {"measurement": "Drug uptake", "setting": "[5]", "result": "Active"},
      {"measurement": "viability at 3 µM", "setting": "[6]", "result": 91.1, "unit": "%"},
      {"measurement": "Activity", "setting": "[7]", "result": "Active"},
      {"measurement": "Activity", "setting": "[8]", "result": "Non-Toxic"},
      {"measurement": "Activity", "setting": "[9]", "result": 4.45, "unit": "%"},
      {"measurement": "Activity", "setting": "[10]", "result": "Active"},
      {"measurement": "Activity", "setting": "[11]", "result": "Active"},
      {"measurement": "fold change (FC)", "setting": "[12]", "result": 19},
      {"measurement": "MST", "setting": "[13]", "result": 18, "unit": "days"},
      {"measurement": "Activity", "setting": "[14]", "result": 0.27, "unit": "%"},
      {"measurement": "Activity", "setting": "[15]", "result": 0.55},
      {"measurement": "Activity", "setting": "[16]", "result": "Active"},
      {"measurement": "Drug uptake", "setting": "[17]", "result": "Active"},
      {"measurement": "inhibition", "setting": "[18]", "result": "Active"},
      {"measurement": "Activity", "setting": "[19]", "result": "Dose-Dependent Effect"},
      {"measurement": "IC50", "setting": "[20]", "result": 230, "unit": "nM"},
      {"measurement": "Activity", "setting": "[21]", "result": "Active"},
      {"measurement": "inhibition", "setting": "[22]", "result": "Active"},
      {"measurement": "Activity", "setting": "[23]", "result": "Active"},
      {"measurement": "Drug uptake", "setting": "[24]", "result": "Active"},
      {"measurement": "Activity", "setting": "[25]", "result": "Active"},
      {"measurement": "Activity", "setting": "[26]", "result": "Active"},
      {"measurement": "Activity", "setting": "[27]", "result": "Active"},
      {"measurement": "Activity", "setting": "[28]", "result": 0.26, "unit": "%"},
      {"measurement": "inhibition", "setting": "[29]", "result": "Active"},
      {"measurement": "Activity", "setting": "[30]", "result": "inactive"},
      {"measurement": "half-life", "setting": "[31]", "result": 3.06, "unit": "min"}
    ]}
  ]
}
